The values that follow come from patent US20060167276A1, “Clausenamide c5-hydroxyl derivatives and n-substituted derivatives, processes for their preparation, its composition and use” (priority 2002, published 2006).

The conditions of data set [1]: in vivo and in vitro; cited from earlier work.
Data set [2] deals with C17-2 mouse brain neural stem cells. Description: Cell proliferation of mouse brain neural stem cells (MTT, OD 490 nm). Type of data set: cell-based. The note with it: for Result (OD value): MTT at 4th day, OD 490 nm; for Cell proliferation %: control group = 100%. How it is done:
C17-2 mouse brain neural stem cells (C17-2 cells) were continuously cultured in 1640 medium with 10% horse serum and 10% fetal bovine serum at 5% CO2 and 37° C., dissociated to single cell suspension by 0.1% trypsin solution, centrifuged at 1,000 rpm×5 min and rinsed with medium. The cells were seeded in a 96-well plate, 1×10^3 cells per well, 3 well per group, continuously cultured. After 24 hours, the test compounds were added, doses of each of the C5-hydroxyl substituted clausenamides and N-substituted clausenamide derivatives were 0.1 μM, 1 μM and 10 μM respectively. The growth situation of the cells was observed under a microscope, once daily. At the 4th day, media in each well were pipetted, phosphate buffer solution containing MTT was added. 4 Hours later, the fluid was discarded, and a DMSO solution was added. The cells were incubated at 37° C. for 10 min under shaken. OD values on 490 nm of each well were detected. Set the growth rate of the control group as 100%, and the growth rates of each dose were given by comparison with the control group and t-tested.

In a further data set the test system is rat hippocampus. Description: LTP / synaptic transmission in rat hippocampus (population spike amplitude, dentate gyrus). Type of data set: in vivo. The following applies: for Relative PS (PSA %): lateral ventricle, prior administration = 100. An excerpt:
Male adult SD Rats (5 per group) were anesthetized with 20% (w/v) urethane carbamate (1.0 g·kg^−1, ip) and fixed in a stereotaxic head holder. According to the reference of Pellegrino stereotaxic spectrum of rat, recording electrodes (stainless steel needle of 0.2 mm diameter were insulted except for 0.2 mm tip) were placed in the dentate gyrus granule cell layer. The stimulating electrodes (two stainless steel needles of 0.15 mm diameter coated with Teflon except for the 0.2 mm tip, and the distance between two needles was 0.5 mm) were planted between the fibre of perforant path (PP) in rat. Continuous pulse was provided by electronic stimulator, and delivered to PP through stimulus isolator and stimulating electrodes. Electrode depth was then adjusted until a typical excitatory postsynaptic potential (EPSP) was observed. Electric current was magnified by amplifier and collected by computer, then processed by DataWave software. The stimulus intensity was adjusted to produce population spike (PS) with a slope that was ≈50% of the maximum. Single-pulse test stimuli were at an interval of 30 sec during the experiment. Population spike amplitude (PSA) was recorded and the relatively percent of PSA was calculated according to the formula (PSA/basic value).

For data set [3] the following is noted: several behavioral studies; cited from earlier work.

As for `O=C1C(O)C(c2ccccc2)C(C(O)c2ccccc2)N1CO` (single isomer, unassigned; (-)) [(−)CM1, (−) N-hydroxymethyl norclausenamide], the “content in the metabolites of (−) clausenamide compared with the corresponding (+) isomers in the metabolites of (+) clausenamide” value in data set [1] is given as “significantly higher”.

Take `CN1C(=O)C(O)C(c2ccccc2)C1(O)C(O)c1ccccc1` (single isomer, unassigned; (-)) [(−)CM2, (−) 5-hydroxyclausenamide]: in data set [1], the “content in the metabolites of (−) clausenamide compared with the corresponding (+) isomers in the metabolites of (+) clausenamide” value was “significantly higher”.

Turning to `CN1C(=O)[C@H](O)[C@@H](c2ccccc2)[C@@]1(O)[C@H](O)c1ccccc1` [(+)II3, (+)-(3R,4R,5R,6R)-5-hydroxy-clausenamide], the “effects on cell proliferation of mouse brain neural stem cells (conclusion)” value in data set [2] is recorded as “significant effects”. Also, the “promotion effects on cell proliferation of mouse brain neural stem cells” value in data set [2] (at doses of 0.1 μM and 1 μM) is listed as “significant promotion effects”. The “Result (OD value)” value is recorded as 0.131 ± 0.009 in data set [2] (dose 10^−5 M), 0.199 ± 0.024 in data set [2] (dose 10^−6 M) and 0.253 ± 0.020 in data set [2] (dose 10^−7 M). Also, the Cell proliferation % in data set [2] (dose 10^−5 M) is given as 95.62%; in data set [2] (dose 10^−6 M), 145.26%; in data set [2] (dose 10^−7 M), 184.67%. Also, the “Relative PS (PSA %)” value in the data set with rat hippocampus (15 min after administration) is 91.74 ± 17.21%; with rat hippocampus (30 min after administration), 117.87 ± 14.93%; in the data set on rat hippocampus (45 min after administration), 161.14 ± 13.94 %; in the data set on rat hippocampus (60 min after administration) it was 188.03 ± 5.28 %. The “effects on synaptic transmission” value in the data set with rat hippocampus (P<0.05 vs. control, n=5) is on record as “significantly upstanding effects”.

As to `O=C1C(O)C(c2ccccc2)C(C(O)c2ccccc2)N1Cc1ccccc1` (racemic) [(±)III8], the results for the “Result (OD value)” value in data set [2] (dose 10^−5 M), in data set [2] (dose 10^−6 M) and in data set [2] (dose 10^−7 M) were 0.096 ± 0.022, 0.144 ± 0.038 and 0.221 ± 0.043, respectively. Besides, the values for the Cell proliferation % in data set [2] (dose 10^−5 M), in data set [2] (dose 10^−6 M) and in data set [2] (dose 10^−7 M) were 70.07%, 105.11% and 161.31%, respectively. Further, the “Relative PS (PSA %)” value with rat hippocampus (15 min after administration) turned out to be 67.75 ± 26.84%; in the data set with rat hippocampus (30 min after administration), 68.48 ± 21.15%; in the data set with rat hippocampus (45 min after administration) it was 79.25 ± 16.62%; in the data set with rat hippocampus (60 min after administration), 98.97 ± 14.26%.

As for `CN1C(=O)C(O)C(c2ccccc2)C1C(O)c1ccccc1` (racemic) [clausenamide], the nootropic effect result in data set [3] was “Significant nootropic effect”.

Regarding `CN1C(=O)[C@@H](O)[C@H](c2ccccc2)[C@]1(O)[C@@H](O)c1ccccc1` [(−)II3, (−)-(3S,4S,5S,6S)-5-hydroxy-clausenamide], the “Result (OD value)” value in data set [2] (dose 10^−5 M) is given as 0.088 ± 0.006; in data set [2] (dose 10^−6 M), 0.187 ± 0.020; in data set [2] (dose 10^−7 M), 0.168 ± 0.076. In addition, the results for the Cell proliferation % in data set [2] (dose 10^−5 M), in data set [2] (dose 10^−6 M) and in data set [2] (dose 10^−7 M) were 64.23%, 136.50% and 122.63%, respectively. The “Relative PS (PSA %)” value in the data set on rat hippocampus (15 min after administration) turned out to be 92.83 ± 17.54%; in the data set on rat hippocampus (30 min after administration) it was 87.11 ± 30.54%; in the data set with rat hippocampus (45 min after administration), 97.34 ± 25.71%; with rat hippocampus (60 min after administration) it was 98.30 ± 28.59%.

As to `COc1ccc(CN2C(=O)C(O)C(c3ccccc3)C2C(O)c2ccccc2)cc1` (racemic) [(±)III9], the “Result (OD value)” value in data set [2] (dose 10^−5 M) was found to be 0.120 ± 0.027; in data set [2] (dose 10^−6 M), 0.138 ± 0.012; in data set [2] (dose 10^−7 M), 0.212 ± 0.011. Besides, the Cell proliferation % is given as 87.59% in data set [2] (dose 10^−5 M), 100.73% in data set [2] (dose 10^−6 M) and 154.74% in data set [2] (dose 10^−7 M). The “Relative PS (PSA %)” value with rat hippocampus (15 min after administration) came to 115.6 ± 17.94%; in the data set on rat hippocampus (30 min after administration) it was 107.18 ± 20.09%; with rat hippocampus (45 min after administration), 103.77 ± 15.36%; with rat hippocampus (60 min after administration), 112.72 ± 8.95%.

Turning to `NC(=O)CN1C(=O)C(O)C(c2ccccc2)C1C(O)c1ccccc1` (racemic) [(±)III1, N-(aminocarbonyl-methylene)-norclausenamide], the “Result (OD value)” value in data set [2] (dose 10^−5 M) came out at 0.104 ± 0.009; in data set [2] (dose 10^−6 M), 0.205 ± 0.006; in data set [2] (dose 10^−7 M), 0.240 ± 0.017. For the same compound, the values for the Cell proliferation % in data set [2] (dose 10^−5 M), in data set [2] (dose 10^−6 M) and in data set [2] (dose 10^−7 M) were 75.91%, 149.64% and 175.18%, respectively. The “Relative PS (PSA %)” value in the data set on rat hippocampus (15 min after administration) is recorded as 85.24 ± 17.41%; with rat hippocampus (30 min after administration), 79.82 ± 22.33%; with rat hippocampus (45 min after administration) it was 96.00 ± 19.78%; with rat hippocampus (60 min after administration), 117.37 ± 13.49%.
